In US12187713B2, “Immunomodulators, compositions and methods thereof” (Betta Pharmaceuticals Co., Ltd, priority 2019, dated 2025):
Where a name gives a salt, the structure may show the parent alone.

Biological target: PD-1/PD-L1 (Homo sapiens (Human), UniProt Q9NZQ7)
Assay: PD-1/PD-L1 Binding Assay (Alphascreen)
Details: numeric values
Summary of the method: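 PD-1/PD-L1 binding detected by anti-6×His acceptor and streptavidin donor beads after 120 min in the dark at 25 °C. Beforehand, the two proteins were incubated 15 min at 25 °C with inhibitor at 0.015–300 nM (1% DMSO). IC50 comes from a log concentration–response curve.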

Chain of PD-1/PD-L1 (Q9NZQ7 19-238): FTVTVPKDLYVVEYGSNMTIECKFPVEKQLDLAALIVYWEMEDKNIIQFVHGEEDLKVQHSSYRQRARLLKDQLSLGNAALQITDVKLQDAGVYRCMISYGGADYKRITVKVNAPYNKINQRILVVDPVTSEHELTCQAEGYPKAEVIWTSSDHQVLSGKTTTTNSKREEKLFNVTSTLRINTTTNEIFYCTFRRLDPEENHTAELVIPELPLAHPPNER

SMILES	IC50
Cc1c(-c2ccc(NC(=N)N)cc2)cccc1-c1cccc(-c2nc3cc(CN4CCC[C@H]4C(=O)O)c(OC(F)F)cc3o2)c1C [Example 225, ((6-(difluoromethoxy)-2-(4″-guanidino-2,2′-dimethyl-[1,1′:3,1″-terphenyl]-3-yl)benzo[d]oxazol-5-yl)methyl)-L-proline]	2 nM
Cc1c(-c2ccc(CN(C)CCCN(C)C)cc2)cccc1-c1cccc(-c2nc3cc(CN4CCC[C@H]4C(=O)O)c(OC(F)F)cc3o2)c1C [Example 226, ((6-(difluoromethoxy)-2-(4″-(((3-(dimethylamino)propyl)(methyl)amino)methyl)-2,2′-dimethyl-[1,1′:3′,1″-terphenyl]-3-yl)benzo[d]oxazol-5-yl)methyl)-L-proline]	4.7 nM
Cc1c(-c2ccc(CN3CCC(N(C)C)C3)cc2)cccc1-c1cccc(-c2nc3cc(CN4CCC[C@H]4C(=O)O)c(OC(F)F)cc3o2)c1C (stereo partly drawn) [Example 228, ((6-(difluoromethoxy)-2-(4″-((3-(dimethylamino)pyrrolidin-1-yl)methyl)-2,2′-dimethyl-[1,1′:3′,1″-terphenyl]-3-yl)benzo[d]oxazol-5-yl)methyl)-L-proline]	4.3 nM
Cc1c(-c2ccc(CN3CCCC3)c(Cl)c2)cccc1-c1cccc(-c2nc3cc(CN4CCC[C@H]4C(=O)O)c(OC(F)F)cc3o2)c1C [Example 229, ((2-(3″-chloro-2,2′-dimethyl-4″-(pyrrolidin-1-ylmethyl)-[1,1′:3′,1″-terphenyl]-3-yl)-6-(difluoromethoxy)benzo[d]oxazol-5-yl)methyl)-L-proline]	6.9 nM
Cc1cc(-c2cccc(-c3cccc(-c4nc5cc(CN6CCC[C@H]6C(=O)O)c(OC(F)F)cc5o4)c3C)c2C)ccc1CN1CCCC1 [Example 230, ((6-(difluoromethoxy)-2-(2,2′,3″-trimethyl-4″- (pyrrolidin-1-ylmethyl)-[1,1′:3′,1″-terphenyl]-3-yl)benzo[d]oxazol-5-yl)methyl)-L-proline]	1.5 nM
Cc1c(-c2ccc(CN3CCCC3)c(OC(F)(F)F)c2)cccc1-c1cccc(-c2nc3cc(CN4CCC[C@H]4C(=O)O)c(OC(F)F)cc3o2)c1C [Example 232, ((6-(difluoromethoxy)-2-(2,2′-dimethyl-4″- (pyrrolidin-1-ylmethyl)-3″-(trifluoromethoxy)-[1,1′:3′,1″-terphenyl]-3-yl)benzo[d]oxazol-5-yl)methyl)-L-proline]	7.8 nM
Cc1cc(-c2cccc(-c3cccc(-c4nc5cc(CN6CCC[C@H]6C(=O)O)c(OC(F)F)cc5o4)c3C)c2C)cc(C)c1CN1CCCC1 [Example 234, ((6-(difluoromethoxy)-2-(2,2′,3″,5″-tetramethyl-4″-(pyrrolidin-1-ylmethyl)-[1,1′:3′,1″- terphenyl]-3-yl)benzo[d]oxazol-5-yl)methyl)-L-proline]	0.52 nM
COc1cc(-c2cccc(-c3cccc(-c4nc5cc(CN6CCC[C@H]6C(=O)O)c(OC(F)F)cc5o4)c3C)c2C)cc(F)c1CN1CCCC1 [Example 235, ((6-(difluoromethoxy)-2-(3″-fluoro-5″- methoxy-2,2′-dimethyl-4″-(pyrrolidin-1-ylmethyl)-[1,1′:3′,1″-terphenyl]-3-yl)benzo[d]oxazol-5-yl)methyl)-L-proline]	1.8 nM
Cc1c(-c2ccc(CN3CCCC3)c(C(=O)O)c2)cccc1-c1cccc(-c2nc3cc(CN4CCC[C@H]4C(=O)O)c(OC(F)F)cc3o2)c1C [Example 236, ((2-(3″-carboxy-2,2′-dimethyl-4″-(pyrrolidin-1-ylmethyl)-[1,1′:3′,1″-terphenyl]-3-yl)-6-(difluoromethoxy)benzo[d]oxazol-5-yl)methyl)-L-proline]	290 nM
Cc1c(-c2ccc(CN3CCC(C)C3)c(F)c2)cccc1-c1cccc(-c2nc3cc(CN4CCC[C@H]4C(=O)O)c(OC(F)F)cc3o2)c1C (stereo partly drawn) [Example 238, ((6-(difluoromethoxy)-2-(3″-fluoro-2,2′-dimethyl-4″-((3-methylpyrrolidin-1-yl)methyl)-[1,1′:3′,1″-terphenyl]-3-yl)benzo[d]oxazol-5-yl)methyl)-L-proline]	2.3 nM
Cc1c(-c2ccc(CNCCO)c(F)c2)cccc1-c1cccc(-c2nc3cc(CN4CCC[C@H]4C(=O)O)c(OC(F)F)cc3o2)c1C [Example 239, ((6-(difluoromethoxy)-2-(3″-fluoro-4″-(((2-hydroxyethyl)amino)methyl)-2,2′-dimethyl-[1,1′:3′,1″-terphenyl]-3-yl)benzo[d]oxazol-5-yl)methyl)-L-proline]	0.99 nM
Cc1c(-c2c[nH]c([C@@H]3CCCN3)n2)cccc1-c1cccc(-c2nc3cc(CN4CCC[C@H]4C(=O)O)c(OC(F)F)cc3o2)c1C [Example 247, ((6-(difluoromethoxy)-2-(2,2′-dimethyl-3′-(2-((S)-pyrrolidin-2-yl)-1H-imidazol-4-yl)-[1,1′-biphenyl]-3-yl)benzo[d]oxazol-5-yl)methyl)-L-proline]	5.2 nM
COc1cc(-c2cccc(-c3cccc(-c4nc5cc(CN6CCC[C@H]6C(=O)O)c(OC(F)F)cc5o4)c3C)c2C)cc(OC)c1CN1CCCC1 [Example 254, ((6-(difluoromethoxy)-2-(3″,5″-dimethoxy-2,2′-dimethyl-4″-(pyrrolidin-1-ylmethyl)-[1,1′:3′,1″- terphenyl]-3-yl)benzo[d]oxazol-5-yl)methyl)-L-proline hydrochloride]	16 nM
Cc1c(-c2ccc(C3CCCN3)cc2)cccc1-c1cccc(-c2nc3cc(CN4CCC[C@H]4C(=O)O)c(OC(F)F)cc3o2)c1C (stereo partly drawn) [Example 255, ((6-(difluoromethoxy)-2-(2,2′-dimethyl-4″- (pyrrolidin-2-yl)-[1,1′:3′,1″-terphenyl]-3-yl)benzo[d]oxazol-5-yl)methyl)-L-proline]	2.3 nM

Same assay, conditions: range symbols

SMILES	IC50
Cc1c(-c2ccc(CN3CCCC3)c(Cl)c2)cccc1-c1cccc(-c2nc3cc(CN4CCC[C@H]4C(=O)O)c(OC(F)F)cc3o2)c1C [Example 219, ((2-(3″-chloro-2,2′-dimethyl-4″-(pyrrolidin-1-ylmethyl)-[1,1′:3′,1″-terphenyl]-3-yl)-6-(difluoromethoxy)benzo[d]oxazol-5-yl)methyl)proline]	0.1 to 5 nM
Cc1c(-c2nc3cc(CN4CCC[C@H]4C(=O)O)c(OC(F)F)cc3o2)cccc1-c1cccc(-c2ccc(CN3CCCC3)cc2F)c1C [Example 220, ((6-(difluoromethoxy)-2-(2″-fluoro-2,2′-dimethyl-4″-(pyrrolidin-1-ylmethyl)-[1,1′:3′,1″- terphenyl]-3-yl)benzo[d]oxazol-5-yl)methyl)proline]	0.1 to 5 nM
Cc1c(-c2nc3cc(CN4CCC[C@H]4C(=O)O)c(OC(F)F)cc3o2)cccc1-c1cccc(-c2ccc(CN3CCCC3)cc2F)c1Br [Example 221, ((2-(2′-bromo-2″-fluoro-2-methyl-4″- (pyrrolidin-1-ylmethyl)-[1,1′:3′,1″-terphenyl]-3-yl)-6-(difluoromethoxy)benzo[d]oxazol-5-yl)methyl)proline]	0.1 to 5 nM
Cc1c(-c2nc3cc(CN4CCC[C@H]4C(=O)O)c(OC(F)F)cc3o2)cccc1-c1cccc(-c2ccc(CN3CCCC3)cc2F)c1Cl [Example 222, ((2-(2′-chloro-2″-fluoro-2-methyl-4″- (pyrrolidin-1-ylmethyl)-[1,1′:3′,1″-terphenyl]-3-yl)-6-(difluoromethoxy)benzo[d]oxazol-5-yl)methyl)proline]	0.1 to 5 nM
Cc1c(-c2nc3cc(CN4CCC[C@H]4C(=O)O)c(OC(F)F)cc3o2)cccc1-c1cccc(-c2ccc(CN3CCCC3)cc2F)c1Cl [Example 223, ((2-(2′-chloro-2″-fluoro-2-methyl-4″- (pyrrolidin-1-ylmethyl)-[1,1′:3′,1″-terphenyl]-3-yl)-6-(difluoromethoxy)benzo[d]oxazol-5-yl)methyl)-L-proline]	0.1 to 5 nM
Cc1c(-c2nc3cc(CN4CCC[C@@H]4C(=O)O)c(OC(F)F)cc3o2)cccc1-c1cccc(-c2ccc(CN3CCCC3)cc2F)c1Cl [Example 224, ((2-(2′-chloro-2″-fluoro-2-methyl-4″- (pyrrolidin-1-ylmethyl)-[1,1′:3′,1″-terphenyl]-3-yl)-6-(difluoromethoxy)benzo[d]oxazol-5-yl)methyl)-D-proline]	0.1 to 5 nM
Cc1c(-c2ccc(CN3CC[C@H](CO)C3)c(C#N)c2)cccc1-c1cccc(-c2nc3cc(CN4CCC[C@H]4C(=O)O)c(OC(F)F)cc3o2)c1C [Example 240, ((2-(3″-cyano-4″-(((S)-3-(hydroxymethyl)pyrrolidin-1-yl)methyl)-2,2′-dimethyl-[l,1′:3′,1″-terphenyl]-3-yl)-6-(difluoromethoxy)benzo[d]oxazol-5-yl)methyl)-L-proline]	5 to 50 nM
Cc1c(-c2ccc(CN3CCCC3)c(OCCc3ccc(F)cc3)c2)cccc1-c1cccc(-c2nc3cc(CN4CCC[C@H]4C(=O)O)c(OC(F)F)cc3o2)c1C [Example 249, ((6-(difluoromethoxy)-2-(3″-(4-fluorophenethoxy)-2,2′-dimethyl-4″-(pyrrolidin-1-ylmethyl)-[1,1′:3′,1″-terphenyl]-3-yl)benzo[d]oxazol-5-yl)methyl)proline]	5 to 50 nM
Cc1c(-c2ccc(CN3CCCC3)c(OCC3CC3)c2)cccc1-c1cccc(-c2nc3cc(CN4CCC[C@H]4C(=O)O)c(OC(F)F)cc3o2)c1C [Example 250, ((2-(3″-(cyclopropylmethoxy)-2,2′-dimethyl-4″- (pyrrolidin-1-ylmethyl)-[1,1′:3′,1″-terphenyl]-3-yl)-6-(difluoromethoxy)benzo[d]oxazol-5-yl)methyl)proline]	0.1 to 5 nM
Cc1c(-c2ccc(CN3CC[C@@H](c4nnn[nH]4)C3)c(F)c2)cccc1-c1cccc(-c2nc3cc(CN4CCC[C@H]4C(=O)O)c(OC(F)F)cc3o2)c1C [Example 251, ((2-(4″-(((R)-3-(1H-tetrazol-5-yl)pyrrolidin-1-yl)methyl)-3″-fluoro-2,2′-dimethyl-[1,1′:3′,1″- terphenyl]-3-yl)-6-(difluoromethoxy)benzo[d]oxazol-5-yl)methyl)proline]	5 to 50 nM
Cc1c(-c2ccc([C@H](N)C(=O)O)cc2)cccc1-c1cccc(-c2nc3cc(CN4CCC[C@H]4C(=O)O)c(OC(F)F)cc3o2)c1C [Example 256, ((2-(4″-((S)-amino(carboxy)methyl)-2,2′-dimethyl-[1,1′:3′,1″-terphenyl]-3-yl)-6-(difluoromethoxy)benzo[d]oxazol-5-yl)methyl)-L-proline]	> 50 nM
